Reference: US9719981B2, “RAC1 inhibitors for the treatment of alport glomerular disease” (Father Flanagan's Boys' Home, priority 2012, dated 2017)

Tests used:
[1] = system: primary cultured mesangial cells; test: Transwell Migration Assay of primary mesangial cells with TAE226; assay type: cell-based, mouse; conditions: 0.5 μM TAE226; relative to untreated cells
Experimental: MES Migration (insert). Transwell cell migration assays were performed as described by Daniel et al. (Daniel et al., 2012, Lab Invest; 92(6): 812-26) with some modifications. 8 micron, 24-well plate control inserts (BD Bioscience, Bedford, Mass.) were coated overnight at 4° C. with 100 μl of 0.1% gelatin/PBS then washed 1× with PBS. MES cultures were incubated in 1% FCS overnight, then 0.05% BSA-containing media for at least 8 hours, washed 1× with PBS and carefully tryspinized to ensure a single cell suspension and limited “clumping” of cells. After serum-neutralization and subsequent centrifugation, ˜100,000 cells were resuspended in 1.5 mls of 0.05% BSA media containing activators/inhibitors. The wells of a 24-well plate were filled with 0.75 mls of 10% FCS-containing media plus activators/inhibitors (excluding 0.05% BSA control well). 0.5 ml of cell-suspension was loaded into the gelatin-coated insert and the insert placed in a well. Wells were visually inspected for bubbles beneath insert and equal distribution of cell-suspension. Cells were allowed to migrate overnight (˜18 hrs). […] Inserts were air dried and counted at 100× magnification. Five fields were counted on each insert including one center and four periphery areas. Data was expressed as relative to 10% FCS control well (set equal to one). […]

glomerular injury = conditions: lipopolysaccharide or anti-GBM antibody administration; cited from earlier work
cultured podocytes = test: Real time qRT-PCR for MMP transcripts in cultured podocytes, static and stretched; assay type: cell-based, mouse; conditions: relative to untreated cells
Experimental: NF-κB Staining and −/+ Stretch pFAK397 Western Blot. GEC's were differentiated under “non-permissive” conditions for ten days, plated onto Bioflex 6-well plates (Flexcell International, Hillsborough, N.C.) coated with Collagen Type 1 (rat tail, BD Biosciences, Bedford, Mass.)/Placental Laminin (Sigma), cultured for two days in 0.5% FCS and exposed to mechanical strain for 4 hours, as previously described (Meehan et al., 2009, Kidney Int; 76: 968-976). For NF-κB Staining, cells were fixed with 2% PFA, 4% Sucrose in PBS for 10 minutes, permeabilized with 0.3% Triton, as previously described (Rao et al., 2006, Am J Pathol; 169: 32-46) incubated with αNF-κB P65 antibody at 1:50 overnight at 4° C., incubated with anti-rabbit secondary antibody at 1:750 for two hours at room temperature, gaskets were cut out, mounted on slides with […]™ (Vector Laboratories, Burlingame, Calif.) and cover slipped. For −/+ Stretch pFAK Western, protein was collected in M-PER (Thermo Scientific) as above and Western Blot run as described below.
NF-κB SN50, Inhibitor Peptide Treatment, GEC's were cultured as described above, 10 μM NF-κB SN50 Inhibitor Peptide (EMD Millipore, Billerica, Mass.) was added (and after one additional hour) exposed to 20 hours of mechanical strain and RNA collected as previously described (Meehan et al., 2009, Kidney Int; 76: 968-976).
Real time qRT-PCR. Total RNA was reverse transcribed using […]® III (Invitrogen, Life Technologies, Grand Island, N.Y.) with Oligo(dT)20 Primer (Invitrogen). The real time PCR was carried out using TAQMAN® Gene Expression Master Mix (Applied Biosystems, Life Technologies, Grand Island, N.Y.), and quantified using STEPONEPLUS™ Real-Time PCR System (Applied Biosystems). Samples were normalized to Mouse GAPDH Endogenous Control VIC® Probe (Applied Biosystems catalogue #4352339E) which was run alongside MMP-9 (Catalog #4331182, ID# Mm00442991_m1), MMP-10 (Catalog #4331182, ID# Mm00444630_m1), MMP-12 (Catalog #4331182, ID# Mm00500554_m1), IL-6 (Catalog #4331182, ID# Mm00446190_m1), NFKbia (Catalog #4331182, ID# Mm00477798_m1), and FAK (Catalog #4331182, ID# Mm00433209_m1) TAQMAN® Gene Expression Assay Probes (Applied Biosystems). Samples were run in triplicate with a final reaction volume of 20 ul with the following cycling parameters: 50° C. for 2 min, 95° C. for 10 min, followed by 40 cycles of a two-step PCR consisting of 95° C. for 15 s and 60° C. for 1 min. Relative changes in gene expression were determined by calculating the fold change using the comparative CT method of 2^−ΔΔCT. Data are expressed as the mean with standard deviation for at least four independent RNA samples per data point.

## CNC(=O)c1ccccc1Nc1nc(Nc2ccc(N3CCOCC3)cc2OC)ncc1Cl [TAE226]
[1]
  Cell migratory potential of mesangial cells: significantly reduced
Glomerular injury
  Protection against glomerular injury: protect against glomerular injury
Cultured podocytes; biomechanical stretch
  MMP-10 message levels in stretched podocytes: reduced
  MMP-12 message levels in stretched podocytes: reduced
Cultured podocytes; static conditions
  MMP-10 expression in podocytes: reduced expression
  MMP-12 expression in podocytes: reduced expression
